The results in this text go back to patent US12195482B1 (Arcus Biosciences, Inc., priority 2022, dated 2025).

The structures appear in SMILES notation.

One assay has as its target T1, recombinant human MER (Homo sapiens, UniProt Q12866).
T1 construct: purchased Invitrogen
T1 sequence (Q12866 21-999): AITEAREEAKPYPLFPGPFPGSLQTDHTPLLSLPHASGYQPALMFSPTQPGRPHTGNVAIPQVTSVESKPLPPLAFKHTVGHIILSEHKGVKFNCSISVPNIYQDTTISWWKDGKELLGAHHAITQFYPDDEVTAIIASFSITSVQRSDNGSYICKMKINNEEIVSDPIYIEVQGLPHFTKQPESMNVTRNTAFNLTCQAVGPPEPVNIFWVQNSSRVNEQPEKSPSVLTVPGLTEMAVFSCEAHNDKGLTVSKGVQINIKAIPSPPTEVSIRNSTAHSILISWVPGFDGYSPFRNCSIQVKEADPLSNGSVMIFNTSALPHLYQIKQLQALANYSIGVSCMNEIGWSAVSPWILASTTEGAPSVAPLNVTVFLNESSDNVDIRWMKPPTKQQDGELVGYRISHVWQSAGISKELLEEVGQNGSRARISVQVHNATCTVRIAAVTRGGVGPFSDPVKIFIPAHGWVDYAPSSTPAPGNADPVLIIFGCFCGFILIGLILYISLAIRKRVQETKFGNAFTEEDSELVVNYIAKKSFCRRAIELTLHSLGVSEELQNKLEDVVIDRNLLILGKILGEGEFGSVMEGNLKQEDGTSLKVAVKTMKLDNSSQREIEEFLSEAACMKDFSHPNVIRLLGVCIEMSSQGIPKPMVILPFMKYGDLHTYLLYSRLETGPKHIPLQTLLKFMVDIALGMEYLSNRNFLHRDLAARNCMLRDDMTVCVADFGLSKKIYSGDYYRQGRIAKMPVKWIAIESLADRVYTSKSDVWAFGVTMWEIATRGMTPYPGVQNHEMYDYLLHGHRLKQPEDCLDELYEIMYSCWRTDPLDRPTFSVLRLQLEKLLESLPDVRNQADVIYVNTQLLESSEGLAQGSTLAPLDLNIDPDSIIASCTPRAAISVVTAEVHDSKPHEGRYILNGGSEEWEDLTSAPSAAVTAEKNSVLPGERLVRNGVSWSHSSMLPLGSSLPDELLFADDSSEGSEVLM
Kind of assay: Biochemical potency, HTRF KinEASE-TK kinase assay. The settings on record: 1 nM MER, 700 μM ATP. An outline of the steps: (§1)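 Enzyme (AXL 5 nM; TYRO3 or MER 1 nM final) was preincubated with compound for 1 h at RT, then reacted for 2 h at RT with 800 nM biotinylated TK substrate and 700 µM ATP in HEPES pH 7.4, MgCl2, DTT, BSA, 1% DMSO. Percent activity came from the HTRF 665/620 ratio.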

The next assay addresses T2, recombinant human TYRO3 (Homo sapiens, UniProt Q06418).
T2 construct: purchased Invitrogen
T2 sequence (Q06418 41-890): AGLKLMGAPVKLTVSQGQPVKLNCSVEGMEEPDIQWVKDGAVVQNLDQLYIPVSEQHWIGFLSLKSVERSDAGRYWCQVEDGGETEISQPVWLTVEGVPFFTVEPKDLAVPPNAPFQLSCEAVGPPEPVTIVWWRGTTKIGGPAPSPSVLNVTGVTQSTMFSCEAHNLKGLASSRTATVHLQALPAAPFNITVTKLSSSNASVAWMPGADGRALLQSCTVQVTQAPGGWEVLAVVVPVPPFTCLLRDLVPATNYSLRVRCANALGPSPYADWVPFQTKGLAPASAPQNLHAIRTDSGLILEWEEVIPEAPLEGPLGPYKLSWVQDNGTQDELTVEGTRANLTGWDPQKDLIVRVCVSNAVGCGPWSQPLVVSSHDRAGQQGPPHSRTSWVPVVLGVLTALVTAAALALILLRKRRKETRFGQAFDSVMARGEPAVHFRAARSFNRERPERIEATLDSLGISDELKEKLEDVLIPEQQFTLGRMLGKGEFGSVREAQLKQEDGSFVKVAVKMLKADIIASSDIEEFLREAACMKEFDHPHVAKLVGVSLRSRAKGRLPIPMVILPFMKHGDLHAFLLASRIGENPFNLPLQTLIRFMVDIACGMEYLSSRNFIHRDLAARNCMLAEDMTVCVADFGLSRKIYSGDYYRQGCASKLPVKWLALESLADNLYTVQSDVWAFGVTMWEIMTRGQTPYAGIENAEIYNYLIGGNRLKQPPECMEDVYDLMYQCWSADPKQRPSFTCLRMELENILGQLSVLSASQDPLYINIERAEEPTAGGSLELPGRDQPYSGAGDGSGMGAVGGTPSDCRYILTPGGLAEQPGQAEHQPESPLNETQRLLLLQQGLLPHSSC
Nature of the assay: Biochemical potency, HTRF KinEASE-TK kinase assay. The settings on record: 1 nM TYRO3, 700 μM ATP. An outline of the steps: as §1

Consider `Cc1ncc(C)c(-c2ccc(-c3c[nH]c4ncc(-c5ccc6c(c5)CC[C@@H](N5C7COCC5C7)CC6)cc34)cc2)n1` [Example 123, 6-[(7S)-2-{3-[4-(2,5-Dimethylpyrimidin-4-yl)phenyl]-1H-pyrrolo[2,3-b]pyridin-5-yl}-6,7,8,9-tetrahydro-5H-benzo[7]annulen-7-yl]-3-oxa-6-azabicyclo[3.1.1]heptane], for which the 50% inhibitory concentration (IC50) at recombinant human MER and on recombinant human TYRO3 was less than 0.1 µM in each case.
Consider `CN(C)C(=O)c1cccc(-c2ccc(-c3n[nH]c4ncc(-c5ccc6c(c5)CC[C@@H](N5C7COCC5C7)CC6)cc34)cc2)n1` [Example 94, N,N-Dimethyl-6-(4-{5-[(7S)-7-{3-oxa-6-azabicyclo[3.1.1]heptan-6-yl}-6,7,8,9-tetrahydro-5H-benzo[7]annulen-2-yl]-2H-pyrazolo[3,4-b]pyridin-3-yl}phenyl)pyridine-2-carboxamide], for which the 50% inhibitory concentration (IC50) on recombinant human MER and on recombinant human TYRO3 was more than 1 µM throughout.
With `Cc1cccc(-c2ccc(-c3n[nH]c4ncc(-c5ccc6c(c5)CC[C@@H](N5C7COCC5C7)CC6)cc34)cc2)n1` [Example 116, 6-[(7S)-2-{3-[4-(6-Methylpyridin-2-yl)phenyl]-1H-pyrazolo[3,4-b]pyridin-5-yl}-6,7,8,9-tetrahydro-5H-benzo[7]annulen-7-yl]-3-oxa-6-azabicyclo[3.1.1]heptane], the 50% inhibitory concentration (IC50) on recombinant human MER and on recombinant human TYRO3 was 0.1 to 1 µM throughout.
With `Cc1cnc(-c2ccc(-c3n[nH]c4ncc(-c5ccc6c(c5)CC[C@@H](N5C7COCC5C7)CC6)cc34)cc2)c(C)c1` [Example 119, 6-[(7S)-2-{3-[4-(3,5-Dimethylpyridin-2-yl)phenyl]-1H-pyrazolo[3,4-b]pyridin-5-yl}-6,7,8,9-tetrahydro-5H-benzo[7]annulen-7-yl]-3-oxa-6-azabicyclo[3.1.1]heptane], the IC50 on recombinant human MER and on recombinant human TYRO3 was less than 0.1 µM throughout.
For the molecule `O=c1ccccn1-c1ccc(-c2n[nH]c3ncc(-c4ccc5c(c4)CC[C@@H](N4C6COCC4C6)CC5)cc23)cc1` [Example 31, 1-[4-[5-[(7S)-7-(3-Oxa-6-azabicyclo[3.1.1]heptan-6-yl)-6,7,8,9-tetrahydro-5H-benzo[7]annulen-3-yl]-1H-pyrazolo[3,4-b]pyridin-3-yl]phenyl]pyridin-2-one], the concentration for half-maximal inhibition (IC50) at recombinant human MER and at recombinant human TYRO3 was more than 1 µM throughout.
Regarding `O=C1CCCCN1c1cccnc1-c1ccc(-c2n[nH]c3ncc(-c4ccc5c(c4)CC[C@@H](N4C6COCC4C6)CC5)cc23)cc1` [Example 127, 1-[2-(4-{5-[(7S)-7-{3-Oxa-6-azabicyclo[3.1.1]heptan-6-yl}-6,7,8,9-tetrahydro-5H-benzo[7]annulen-2-yl]-1H-pyrazolo[3,4-b]pyridin-3-yl}phenyl)pyridin-3-yl]piperidin-2-one], the IC50 at recombinant human MER was 0.1 to 1 µM; on recombinant human TYRO3 it was less than 0.1 µM.
As to `O=C1OCCN1c1cccnc1-c1ccc(-c2n[nH]c3ncc(-c4ccc5c(c4)CC[C@@H](N4C6COCC4C6)CC5)cc23)cc1` [Example 121, 3-[2-(4-{5-[(7S)-7-{3-Oxa-6-azabicyclo[3.1.1]heptan-6-yl}-6,7,8,9-tetrahydro-5H-benzo[7]annulen-2-yl]-1H-pyrazolo[3,4-b]pyridin-3-yl}phenyl)pyridin-3-yl]-1,3-oxazolidin-2-one], the IC50 at recombinant human MER and on recombinant human TYRO3 was less than 0.1 µM in each case.
Regarding `COCCOc1cccnc1-c1ccc(-c2n[nH]c3ncc(-c4ccc5c(c4)CC[C@@H](N4C6COCC4C6)CC5)cc23)cc1` [Example 180, 6-[(7S)-2-(3-{4-[3-(2-Methoxyethoxy)pyridin-2-yl]phenyl}-1H-pyrazolo[3,4-b]pyridin-5-yl)-6,7,8,9-tetrahydro-5H-benzo[7]annulen-7-yl]-3-oxa-6-azabicyclo[3.1.1]heptane], the concentration for half-maximal inhibition (IC50) at recombinant human MER is 0.1 to 1 µM; on recombinant human TYRO3, less than 0.1 µM.
As to `CC(C)(O)c1cccnc1-c1ccc(-c2n[nH]c3ncc(-c4ccc5c(c4)CC[C@@H](N4C6COCC4C6)CC5)cc23)nc1` [Example 100, 2-(6′-{5-[(7S)-7-{3-Oxa-6-azabicyclo[3.1.1]heptan-6-yl}-6,7,8,9-tetrahydro-5H-benzo[7]annulen-2-yl]-1H-pyrazolo[3,4-b]pyridin-3-yl}-[2,3′-bipyridin]-3-yl)propan-2-ol], the figures for the half-maximal inhibitory concentration (IC50) at recombinant human MER and at recombinant human TYRO3 were more than 1 µM and 0.1 to 1 µM, respectively.
On to `CO[C@H]1C[C@@H](N[C@H]2CCc3ccc(-c4cnc5[nH]nc(-c6ccc(-c7ncccc7C)cc6)c5c4)cc3CC2)C1` [Example 131, (7S)-2-{3-[4-(3-Methylpyridin-2-yl)phenyl]-1H-pyrazolo[3,4-b]pyridin-5-yl}-N-[cis-3-methoxycyclobutyl]-6,7,8,9-tetrahydro-5H-benzo[7]annulen-7-amine], for which the IC50 at recombinant human MER and on recombinant human TYRO3 was less than 0.1 µM throughout.
Take `Cc1ccccc1-c1ccc(-c2c[nH]c3ncc(-c4ccc5c(c4)CC[C@@H](N4C6COCC4C6)CC5)cc23)nc1` [Example 97, 6-[(7S)-2-{3-[5-(2-Methylphenyl)pyridin-2-yl]-1H-pyrrolo[2,3-b]pyridin-5-yl}-6,7,8,9-tetrahydro-5H-benzo[7]annulen-7-yl]-3-oxa-6-azabicyclo[3.1.1]heptane]: the IC50 on recombinant human MER and at recombinant human TYRO3 was more than 1 µM throughout.
On to `Cn1cnnc1-c1ccc(-c2n[nH]c3ncc(-c4ccc5c(c4)CC[C@@H](N4C6COCC4C6)CC5)cc23)cc1` [Example 169, 6-[(7S)-2-{3-[4-(4-Methyl-4H-1,2,4-triazol-3-yl)phenyl]-1H-pyrazolo[3,4-b]pyridin-5-yl}-6,7,8,9-tetrahydro-5H-benzo[7]annulen-7-yl]-3-oxa-6-azabicyclo[3.1.1]heptane], for which the IC50 on recombinant human MER and on recombinant human TYRO3 was less than 0.1 µM in each case.
`CS(=O)(=O)c1cccnc1-c1ccc(-c2n[nH]c3ncc(-c4ccc5c(c4)CC[C@@H](N4C6COCC4C6)CC5)cc23)cc1` [Example 101, 6-[(7S)-2-{3-[4-(3-Methanesulfonylpyridin-2-yl)phenyl]-1H-pyrazolo[3,4-b]pyridin-5-yl}-6,7,8,9-tetrahydro-5H-benzo[7]annulen-7-yl]-3-oxa-6-azabicyclo[3.1.1]heptane]: the half-maximal inhibitory concentration (IC50) on recombinant human MER is 0.1 to 1 µM; at recombinant human TYRO3, less than 0.1 µM.
With `O=C(c1cccnc1-c1ccc(-c2c[nH]c3ncc(-c4ccc5c(c4)CC[C@@H](N4C6COCC4C6)CC5)cc23)cc1)N1CCCC1` [Example 171, 6-[(7S)-2-(3-{4-[3-(Pyrrolidine-1-carbonyl)pyridin-2-yl]phenyl}-1H-pyrrolo[2,3-b]pyridin-5-yl)-6,7,8,9-tetrahydro-5H-benzo[7]annulen-7-yl]-3-oxa-6-azabicyclo[3.1.1]heptane], the half-maximal inhibitory concentration (IC50) at recombinant human MER and on recombinant human TYRO3 was 0.1 to 1 µM throughout.
Consider `Cc1ccc(-c2ccc(-c3n[nH]c4ncc(-c5ccc6c(c5)CC[C@@H](N5C7COCC5C7)CC6)cc34)cc2)nc1` [Example 115, 6-[(7S)-2-{3-[4-(5-Methylpyridin-2-yl)phenyl]-1H-pyrazolo[3,4-b]pyridin-5-yl}-6,7,8,9-tetrahydro-5H-benzo[7]annulen-7-yl]-3-oxa-6-azabicyclo[3.1.1]heptane], for which the IC50 on recombinant human MER is 0.1 to 1 µM; on recombinant human TYRO3, more than 1 µM.

As a reminder, the IC50 is the concentration that gives 50% inhibition.
